Measured values: patent US20060100140A1, “Combination of a) n-{5-[4-(4-methyl-piperazino-methyl)-benzoylamido]2-methylphenyl}-4- (3-pyridyl)-2-pyrimidine-amine and b) a histone deacetylase inhibitor for the treatment of leukemia” (priority 2002, published 2006)

Experiments:
Format in all cases: cell-based, human
[1] = test system: K562 cells; assay: Apoptosis by morphological analysis of Wright Giemsa-stained cytospin preparations; details: for percentage of apoptotic cells: Table 2A, 2.0 μM SAHA ± 250 nM Compound I; for % of apoptotic cells: Table 5, K562: SAHA […]
Description: (§1) Experimental Format: Logarithmically growing cells are placed in sterile plastic T-flasks (Corning, Corning, N.Y.) to which are added the designated drugs and the flasks replaced in the incubator for intervals. At the end of the incubation period, cells are transferred to sterile centrifuge tubes, pelleted by centrifugation at 400×g for 10 min at room temperature, and prepared for analysis as described below.
(§2) Assessment of Apoptosis: After drug exposures, cytocentrifuge preparations are stained with Wright-Giemsa and viewed by light microscopy to evaluate the extent of apoptosis (i.e., cell shrinkage, nuclear condensation, formation of apoptotic bodies, etc.) as described previously (Yu et al., Nat. Rev. Cancer 1:294-202). For these studies, the percentage of apoptotic cells is determined by evaluating ≧500 cells/condition in triplicate. To confirm the results of morphological analysis, Annexin V/PI staining is used. Annexin V/PI (BD PharMingen, San Diego, Calif.) analysis of cell death is carried out as per the manufacturer's instructions. In studies involving TNF and TNF soluble receptor, both compound are combined and maintained at room temperature 20 min prior to use. For these experiments 1-2×10^5 cells per condition are harvested. Analysis is carried out using a Becton-Dickinson FACScan cytofluorometer (Mansfield, Mass.). To further confirm the morphology results, TUNEL staining is used. For TUNEL staining, cytocentrifuge preparations are obtained and fixed with 4% formaldehyde. The slides are treated with acetic acid/ethanol (1:2), stained with terminal transferase reaction mixture containing 1× terminal transferase reaction buffer (0.25 units/μl terminal transferase, 2.5 mM CoCl2, and 2 pmol fluorescein-12-dUTM; Boehringer Mannheim, Indianapolis, Ind.), and visualized using fluorescence microscopy.

[2] = test system: K562 cells; assay: Erythroid differentiation by hemoglobin (Hgb) production; details: 2.0 μM SAHA ± 250 nM Compound I
Source text: In each case, values represent the means±S.D. for three separate experiments.

[3] = test system: K562 cells transfected with GFP alone; assay: Apoptosis in sorted transiently transfected cells; details: Table 8, 2.0 μM SAHA ± 250 nM Compound I for 24 hr
Description: as §2, with “In studies involving TNF and TNF soluble receptor, both compound are combined and maintained at room temperature 20 min prior to use. For these experiments 1-2×10^5 cells per condition are harvested. Analysis is carried out using a Becton-Dickinson FACScan cytofluorometer (Mansfield, Mass.). To further confirm the morphology results, TUNEL staining is used. For TUNEL staining, cytocentrifuge preparations are obtained and fixed with 4% formaldehyde.” left out
Transient transfections: Plasmids encoding enhanced green fluorescence protein under the transciptional control of the human cytomegalovirus (CMV) immediate-early promoter (pEGFP-C2), and HA-tagged activated MEK1 (S218D/S222D in pUSEEamp) are obtained from Clontech Laboratories (Palo Alto, Calif.) and Upstate Biotechnology (Lake Placid, N.Y.), respectively.

[4] = test system: p21^CIP1; assay: Western analysis of p21CIP1 in K562 cells; details: 2.0 μM SAHA ± 250 nM Compound I
Description: Immunoblot Analysis: Immunoblotting is performed as described previously (Yu et al., Nat. Rev. Cancer 1:294-202). In brief, after drug treatment cells are pelleted by centrifugation, and lysed immediately in Laemmli buffer [1×=30 mM Tris-base (pH 6.8), 2% SDS, […] β-mercaptoethanol, and 10% glycerol], and briefly sonicated. Homogenates are quantified using Coomassie protein assay reagent (Pierce, Rockford, Ill.). Equal amounts of protein (20 μg) are boiled for 10 min, separated by SDS-PAGE (5% stacker and 10% resolving), and electroblotted to nitrocellulose membrane. After blocking in TBS-T (0.05%) and 5% milk for 1 h at 22° C., the blots are incubated in fresh blocking solution with an appropriate dilution of primary antibody for 4 h at 22° C. […]
K562 cells are treated as above, and monitored for expression of Bcl-xL, Mcl-1, and XIAP. […]

[5] = test system: K562 cells; assay: Clonogenic survival in soft agar; details: 2.0 μM SAHA ± 250 nM Compound I for 24 hr, washed, 12-day incubation
Description: Analysis of erythroid maturation of K562 cells is performed by monitoring the production of hemoglobin as previously described (Yang et al., J. Biol. Chem. 2001, 276:25742-52). Clonogenic Survival: Effects of drug treatment on the clonogenic survival of leukemia cells is determined using a previously described clonogenic assay (Yu et al., Mol. Pharmacol. 2001, 60: 143-54).

[6] = test system: Compound I-resistant K562 cells (K562R); assay: Apoptosis by Wright Giemsa-stained cytospin slides in resistant cells; details: Table 7, 24 hr, Compound I (1.0 or 1.25 μM), SAHA (1.0 or 2.0)
Description: as §2, with “For TUNEL staining, cytocentrifuge preparations are obtained and fixed with 4% formaldehyde.” left out

[7] = test system: LAMA 84 cells; assay: Apoptosis by cytospin slides
Description: as §1, §2

## O=C(CCCCCCC(=O)Nc1ccccc1)NO [SAHA, suberoylanilide hydroxamic acid]
[1]; Table 1B, SAHA 1 μM, Compound I 0 or 250 nM, 24 hr
  apoptosis: 0.8 ± 0.4%
[1]; Table 1B, SAHA 1.5 μM, Compound I 0 or 250 nM, 24 hr
  apoptosis: 1.6 ± 0.7%
[1]; Table 1B, SAHA 2.0 μM, Compound I 0 or 250 nM, 24 hr
  apoptosis: 2.7 ± 0.7%
[1]; Table 1B, SAHA 3.0 μM, Compound I 0 or 250 nM, 24 hr
  apoptosis: 28.4 ± 3.2%
[1]; Table 1B, SAHA […], Compound I 0 or 250 nM, 24 hr
  apoptosis: 14.5 ± 1.3%
[1]; 0 hours
  percentage of apoptotic cells: 0.6 ± 0.2%
[1]; 6 hours
  percentage of apoptotic cells: 0.9 ± 0.2%
[1]; 12 hours
  percentage of apoptotic cells: 1.7 ± 0.5%
[1]; 18 hours
  percentage of apoptotic cells: 2.3 ± 0.8%
[1]; 24 hours
  percentage of apoptotic cells: 3.5 ± 1.1%
[1]; 48 hours
  percentage of apoptotic cells: 14.8 ± 2.1%
[1]; Compound I 250 nM, 24 hr
  % of apoptotic cells: 6.6 ± 3.8%
[2]; 24-hr exposure
  increase in Hgb production: ~50%
[2]; 48 hr, data not shown
  Hgb production: substantial increases
[3]
  apoptosis: 22.5 ± 2.6%
[4]
  induction of p21^CIP1: robust induction
[5]
  Clonogenic survival (% control): 21.8 ± 3.6 % control
[6]
  Compound I + SAHA % of apoptotic cells: 6.8 ± 3.5%

## Cc1ccc(NC(=O)c2ccc(CN3CCN(C)CC3)cc2)cc1Nc1nccc(-c2cccnc2)n1 [Compound I, N-{5-[4-(4-methyl-piperazino-methyl)-benzoylamido]-2-methylphenyl}-4-(3-pyridyl)-2-pyrimidine-amine]
[1]; Table 1A, Compound I 100 nM, SAHA 0 or 2 μM, 24 hr
  apoptosis: 1.1 ± 0.5%
[1]; Table 1A, Compound I 150 nM, SAHA 0 or 2 μM, 24 hr
  apoptosis: 1.3 ± 0.6%
[1]; Table 1A, Compound I 200 nM, SAHA 0 or 2 μM, 24 hr
  apoptosis: 1.6 ± 0.6%
[1]; Table 1A, Compound I 250 nM, SAHA 0 or 2 μM, 24 hr
  apoptosis: 2.8 ± 1.2%
[1]; Table 1B, SAHA 0 μM, Compound I 250 nM, 24 hr
  apoptosis: 2.7 ± 1.2%
[1]; 0 hours
  percentage of apoptotic cells: 0.6 ± 0.2%
[1]; 6 hours
  percentage of apoptotic cells: 1.1 ± 0.5%
[1]; 12 hours
  percentage of apoptotic cells: 2.1 ± 0.8%
[1]; 18 hours
  percentage of apoptotic cells: 3.3 ± 1.0%
[1]; 24 hours
  percentage of apoptotic cells: 3.5 ± 1.2%
[1]; 48 hours
  percentage of apoptotic cells: 21.8 ± 3.4%
[1]; Compound I 250 nM, 24 hr
  % of apoptotic cells: 8.3 ± 3.2%
[1]; Table 6, K562, 24 hr, sodium butyrate (SB; 1 or 2 mM), Compound I concentration not given
  Compound I + SB % of apoptotic cells: 10.3 ± 3.6%
[1]; sensitive K562, Compound I (1.0 or 1.25 μM) for 48 hr, data not shown
  cell death: ~100%
[7]; Table 6, LAMA 84, 24 hr, sodium butyrate (SB; 1 or 2 mM), Compound I concentration not given
  Compound I + SB % of apoptotic cells: 9.3 ± 3.8%
[7]; sensitive LAMA 84, Compound I (1.0 or 1.25 μM) for 48 hr, data not shown
  cell death: ~100%
